Columns and labels:
Assay in all cases: relative viability (nuclei count vs DMSO), 5 days (fraction); higher = more cells survive
[1] = compound: CC(C)=CC[C@@H](O)C1=CC(=O)c2c(O)ccc(O)c2C1=O [Shikonin] + COc1cc2c(Oc3ccc(NC(=O)C4(C(=O)Nc5ccc(F)cc5)CC4)cc3F)ccnc2cc1OCCCN1CCOCC1 [Foretinib] (partner 0.25 µM)
How it was run: (§1)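 Medians of duplicate plates are given as relative viability. That measure is the nuclei count in treated wells divided by the count in vehicle wells. Counts were taken on 4× images of lung cancer cell lines in 1536-well plates, 5 days after pin-tool dosing the day after seeding with one drug alone or a fixed anchor-drug dose plus five library-drug doses (not always all listed) in √10 steps.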

[2] = compound: CC(C)=CC[C@@H](O)C1=CC(=O)c2c(O)ccc(O)c2C1=O [Shikonin] + Nc1ncn([C@H]2C[C@H](O)[C@@H](CO)O2)c(=O)n1 [Decitabine] (partner 2 µM)
How it was run: as §1

[3] = compound: CC(C)=CC[C@@H](O)C1=CC(=O)c2c(O)ccc(O)c2C1=O [Shikonin] + O=C(CCCCCCC(=O)Nc1ccccc1)NO [Vorinostat] (partner 1 µM)
How it was run: as §1

[4] = compound: CC(C)N(CCCNC(=O)Nc1ccc(C(C)(C)C)cc1)C[C@H]1O[C@@H](n2ccc3c(N)ncnc32)[C@H](O)[C@@H]1O + CC1(C)CCC(c2ccc(Cl)cc2)=C(CN2CCN(c3ccc(C(=O)NS(=O)(=O)c4ccc(N[C@H](CCN5CCOCC5)CSc5ccccc5)c(S(=O)(=O)C(F)(F)F)c4)cc3)CC2)C1 [Navitoclax] (partner 0.5 µM)
How it was run: as §1

Cell Line	relative viability ([1]; first compound 0.01 µM)	relative viability ([1]; first compound 0.1 µM)	relative viability ([1]; first compound 0.3162 µM)	relative viability ([1]; first compound 1 µM)	relative viability ([2]; first compound 0.01 µM)	relative viability ([2]; first compound 0.1 µM)	relative viability ([2]; first compound 0.3162 µM)	relative viability ([2]; first compound 1 µM)	relative viability ([3]; first compound 0.01 µM)	relative viability ([3]; first compound 0.1 µM)	relative viability ([3]; first compound 0.3162 µM)	relative viability ([3]; first compound 1 µM)	relative viability ([4]; first compound 0.08 µM)	relative viability ([4]; first compound 0.253 µM)	relative viability ([4]; first compound 0.8 µM)	relative viability ([4]; first compound 2.53 µM)	relative viability ([4]; first compound 8 µM)
201T	1.07	1.15	1.19	1.25	0.847	0.919	0.879	0.867	1.02	1.03	1.02	1	1.21	1.21	1.24	1.21	1.25
A549	1.05	1.03	1.16	1.11	0.223	0.281	0.239	0.193					1.17	1.22	1.25	1.18	1.14
A-427	1.16	1.26	1.21	1.16	0.575	0.578	0.579	0.61	0.862	0.938	0.93	0.931	0.917	0.941	0.875	0.969	0.925
ABC-1	1.14	0.993	0.927	1.04	1.33	1.28	1.21	1.02	1.2	1.15	1.08	0.837					
BEN	0.576	0.744	0.839	0.848	0.658	0.787	0.707	0.767	0.567	0.619	0.606	0.617	0.0864	0.0543	0.0608	0.0499	0.0778
CAL-12T	1.02	1.08	1.23	1.16					0.842	0.802	0.832	0.583	1.14	1.27	1.19	1.19	1.19
COR-L23	1.05	0.813	1.03	0.988	0.382	0.516	0.399	0.398	0.413	0.449	0.471	0.308	0.977	0.919	0.982	1.01	0.963
COR-L 105	1.44	1.31	1.34	1.33	0.64	0.703	0.625	0.477	0.841	0.91	0.881	0.853	0.745	0.776	0.886	0.931	0.645
Calu-6	0.962	0.904	1.02	0.885									0.887	0.87	0.848	0.902	0.841
ChaGo-K-1	0.97	1.06	1.05	0.943	0.521	0.529	0.513	0.567	0.746	0.914	0.8	0.762	1.01	1.02	0.92	1.01	1.05
EBC-1	0.0907	0.107	0.11	0.112									0.406	0.387	0.383	0.363	0.388
EKVX	0.751	0.646	1.05	0.762	0.295	0.367	0.312	0.584	0.634	0.711	0.831	0.925	0.905	0.974	0.976	0.95	0.915
EMC-BAC-2	0.993	1.05	1.16	0.972	0.964	1.07	1.13	0.956	0.431	0.465	0.439	0.659	1.14	1.15	1.13	1.14	1.08
EPLC-272H	0.715	0.601	0.783	0.726	0.344	0.387	0.371	0.358	0.378	0.353	0.536	0.377	1.03	0.981	0.989	1.12	1.02
H3255	0.851	0.876	0.869	0.856	0.606	0.658	0.663	0.503	0.703	0.959	0.916	0.855	0.518	0.555	0.545	0.367	0.551
HARA	0.936	1.13	0.865	0.883	0.516	0.674	0.691	0.591	0.546	0.51	0.468	0.605	1.08	1.07	1.15	1.13	0.941
HCC-15	1.05	1.02	1.12	0.986	0.575	0.848	0.638	0.792	0.986	0.841	1.01	0.955	0.653	0.717	0.733	0.707	0.673
HCC-44					0.953	0.928	1.1	0.979	1.14	1.12	1.13	1.03	0.952	1.1	0.915	0.961	1.03
HCC-78	0.562	0.621	0.614	0.627	0.71	0.638	0.721	0.732	0.505	0.472	0.514	0.415	0.704	0.646	0.607	0.784	0.839
HCC-366	0.928	1.2	0.979	0.939	0.34	0.381	0.37	0.367	0.367	0.425	0.323	0.484	1.08	1.05	0.928	0.898	0.942
HCC-827	0.976	1.15	1.06	1.08	0.326	0.29	0.33	0.329	0.831	0.908	1.06	0.855	0.992	0.949		0.962	0.977

— the supplement of paper PMC10307832
